Test results: ChEMBL document CHEMBL1201862, “PubChem BioAssay data set” (2004)
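Following 48 hours of exposure in 96-well plates, responses at five concentrations were used to interpolate endpoints linearly. Here, GI50 denotes the concentration required for 50% inhibition of growth.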 The source made the active and inactive calls. No stated cut-off is given here; in the data, active = GI50 up to about 1.1 µM and inactive = higher.

Key:
Assay in all cases: NCI-60 cell line screen, 48 h
[1] = test system: SF-295
[2] = test system: MDA-MB-435
[3] = test system: NCI-H226
[4] = test system: PC-3
[5] = test system: RXF 393
[6] = test system: U-251
[7] = test system: SR
[8] = test system: SF-539
[9] = test system: SK-MEL-2
[10] = test system: SW-620
[11] = test system: DU-145
[12] = test system: HCT-116
[13] = test system: MDA-N
[14] = test system: COLO 205
[15] = test system: OVCAR-8
[16] = test system: HOP-62
[17] = test system: HL-60
[18] = test system: UACC-257

| Compound | GI50 [1] | GI50 [2] | GI50 [3] | GI50 [4] | GI50 [5] | GI50 [6] | GI50 [7] | GI50 [8] | GI50 [9] | GI50 [10] | GI50 [11] | GI50 [12] | GI50 [13] | GI50 [14] | GI50 [15] | GI50 [16] | GI50 [17] | GI50 [18] |
| --- | --- | --- | --- | --- | --- | --- | --- | --- | --- | --- | --- | --- | --- | --- | --- | --- | --- | --- |
| O=C1Nc2ccccc2/C1=N/NC(=S)N1CCCCC1 | 0.256 µM (active) | 1.36 µM (inactive) | 1.37 µM (inactive) | 0.337 µM (active) | 0.0906 µM (active) | 0.678 µM (active) | 0.675 µM (active) | 0.082 µM (active) | 1.79 µM (inactive) | 0.681 µM (active) | 1.91 µM (inactive) | 0.216 µM (active) | 1.48 µM (inactive) | 0.774 µM (active) | 0.317 µM (active) | 0.3 µM (active) |  |  |
| CC[C@]12C=CCN3CCC4(c5cc(/N=N/c6ccccc6)c(OC)cc5N(C)[C@H]4[C@@](O)(C(=O)OC)[C@@H]1OC(C)=O)[C@@H]32 (stereo not given in full) | 15.6 µM (inactive) | 18.8 µM (inactive) | 24 µM (inactive) | 14.7 µM (inactive) | 15.2 µM (inactive) | 15.9 µM (inactive) | 19.4 µM (inactive) | 21 µM (inactive) | 17.1 µM (inactive) | 23.1 µM (inactive) | 17.6 µM (inactive) | 16.4 µM (inactive) | 18.4 µM (inactive) | 25.2 µM (inactive) | 19.5 µM (inactive) | 17.5 µM (inactive) | 17.3 µM (inactive) | 16.6 µM (inactive) |
| COC(=O)C1(Cc2ccccc2)Cc2ccccc2C1O (stereo not given) | > 100 µM (inactive) | > 100 µM (inactive) | > 100 µM (inactive) | > 100 µM (inactive) | 50.2 µM (inactive) | > 100 µM (inactive) | 92.9 µM (inactive) | > 100 µM (inactive) |  | > 100 µM (inactive) | > 100 µM (inactive) | > 100 µM (inactive) | > 100 µM (inactive) | > 100 µM (inactive) | > 100 µM (inactive) | > 100 µM (inactive) | > 100 µM (inactive) | > 100 µM (inactive) |
| O=C(O)C1C2CCC(O2)C1C(=O)Nc1cccc2cccnc12 (stereo not given) | > 100 µM (inactive) | > 100 µM (inactive) |  | > 100 µM (inactive) | > 100 µM (inactive) | > 100 µM (inactive) | > 100 µM (inactive) |  | > 100 µM (inactive) | > 100 µM (inactive) | > 100 µM (inactive) | > 100 µM (inactive) | > 100 µM (inactive) |  |  | > 100 µM (inactive) |  | > 100 µM (inactive) |
| CCCCCNc1nonc1N | > 100 µM (inactive) | > 100 µM (inactive) | > 100 µM (inactive) | > 100 µM (inactive) | > 100 µM (inactive) | > 100 µM (inactive) | > 100 µM (inactive) | > 100 µM (inactive) | > 100 µM (inactive) | > 100 µM (inactive) | > 100 µM (inactive) | > 100 µM (inactive) | > 100 µM (inactive) | > 100 µM (inactive) | > 100 µM (inactive) | > 100 µM (inactive) |  | > 100 µM (inactive) |
| COC/C=C\[C@]1(O)CCCC[C@@H]1CC(OC)OC | > 100 µM (inactive) | > 100 µM (inactive) | > 100 µM (inactive) | > 100 µM (inactive) | > 100 µM (inactive) | > 100 µM (inactive) | 81.1 µM (inactive) | > 100 µM (inactive) | > 100 µM (inactive) | > 100 µM (inactive) | > 100 µM (inactive) |  | > 100 µM (inactive) | > 100 µM (inactive) | > 100 µM (inactive) | > 100 µM (inactive) | 20.4 µM (inactive) | > 100 µM (inactive) |
| CC1=NN(c2cccc(Cl)c2)C2(SCC(=O)N2c2nc3ccccc3s2)/C1=C\c1ccc(N(C)C)cc1 (stereo not given) | 42.2 µM (inactive) | > 100 µM (inactive) | 76 µM (inactive) | > 100 µM (inactive) | 21.8 µM (inactive) | 35.7 µM (inactive) | 58.5 µM (inactive) | 52.2 µM (inactive) | 23.9 µM (inactive) | > 100 µM (inactive) | > 100 µM (inactive) | > 100 µM (inactive) | > 100 µM (inactive) |  | 58.9 µM (inactive) | 19.4 µM (inactive) | > 100 µM (inactive) | 56.8 µM (inactive) |
